Experimental data reported in paper PMC12392461, “Beyond Estrogenicity: A Comparative Assessment of Bisphenol A and Its Alternatives in In Vitro Assays Questions Safety of Replacements” (Environmental Science & Technology, 2025).

Legend:
Estrogen Receptor ERα [1] = target: T1, Estrogen Receptor ERα (Homo sapiens, UniProt P03372); assay: cell-based; conditions: for EC10, ERα (M): 10% of maximum effect of E2; for REPBPA,ERα (relative effect potency in relation to BPA): EC10,BPA/EC10,BPx; for SR-ScoreERα: SR-Score, sigma k=1, x=5; for Efficacy % / EC10 / REPBPA: This Study; for EC10: ERα; for REPBPA: relative estrogenic potency vs BPA; for Specificity ratio (SRbaseline) SRERα: against baseline cytotoxicity; for EC10, ERα: effect; for log(1/EC10) ERα: input of the ToxPi score, values up to 1.00; for Relative effect potency REPERα: relative to BPA
T1 sequence (P03372 311-547 limits assumed): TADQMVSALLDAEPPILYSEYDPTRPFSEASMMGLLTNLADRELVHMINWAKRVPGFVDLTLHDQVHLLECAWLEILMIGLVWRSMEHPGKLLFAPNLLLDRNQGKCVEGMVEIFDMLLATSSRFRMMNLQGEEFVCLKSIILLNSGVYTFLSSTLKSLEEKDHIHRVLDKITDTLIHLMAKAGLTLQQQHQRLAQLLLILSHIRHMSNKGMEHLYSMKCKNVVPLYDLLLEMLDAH
Outline: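 ERα-UAS-bla GripTite and PPARγ-UAS-bla β-lactamase reporter cells were seeded and held 24 h at 37 °C, 5% CO₂ before dosing. EC10 values used only concentrations below the IC10 from IncuCyte confluency. Emax% is the log-logistic curve maximum relative to the reference chemical's maximum.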

Estrogen Receptor ERα [2] = target: T1, Estrogen Receptor ERα; assay: aCYP oxidation followed by ERα-UAS-bla GripTite assay (TK-Ratio of effect); format: cell-based; conditions: Table S10; ERα; in M
Procedure: Cell culture conditions and bioassay protocols including response detection are provided in Text S2.1–2.4 and Table S3. − Cell viability was determined from cell confluency using an IncuCyte S3 Live-Cell Analysis System (Sartorius AG, Essen, Germany) before and after exposure, except for SH-SY5Y cells (live–dead staining with Nuclear Green LcS1 and propidium iodide, Abcam, UK). For metabolic activation experiments, cell viability was assessed using the ToxBLAzer DualScreen Kit (Thermo Fisher Scientific) to capture the remaining toxicity in ERα-UAS-bla GripTite after treatment with the aCYP catalyst (details in Text S2.4). […]
The TK-Ratio method was used to evaluate the impact of abiotic CYP oxidation on the potency of tested compounds. […]
For experiments with the preceding aCYP activation, ERα cell viability was additionally calculated from the readout of the ToxBLAzer reagent. The ToxBLAzer assay was conducted following the manufacturer's instructions (Thermo Fisher, Waltham, MA, U.S.).13 Fluorescence intensity was recorded at the start of the assay ( Fwavelength(0h)) and after a 2-hour incubation at […]
Cell viability was assessed based on the red fluorescence signal at 665 nm, applying eq. S11 for normalization.
Cell viability = F665nm(2h, sample)-F665nm(0h, average cell-free) (S11) F665nm(2h, average unexposed)-F665nm(0h, average cell-free) […]
the specific endpoint to avoid artifacts from cytotoxicity burst. 15
S2.5: Concentration-response curves (CRCs)
To avoid bias from cytotoxicity burst at higher concentrations, all concentrations exceeding the IC10 for cytotoxicity were excluded in the CRC modeling of effects but otherwise cytotoxicity and effects were fitted with the same model equations (response stands for cytotoxicity or effect). For ERα, AhR, ARE and PPARγ preferably a linear model was fitted to the linear portion of CRC up to maximum 30% effect (eq. S12),16 but in some cases it was necessary to choose a sigmoidal log-concentration-response model, specifically a log-logistic model (eq. S13), to derive effect concentrations and cytotoxicity. For mitochondrial toxicity and neurotoxicity, the […]
are not reporter gene assays. Common practice when using log-logistic models, e.g., the model implemented in tcpl package in R,17, 18 is that the minima and maxima are also fitted and only median effect concentrations AC50 are derived. […]
concentrations (EC10) for both linear and log-sigmoidal CRCs to allow absolute comparisons at the same effect level and for TR and SR -analysis. This was done using the AutomatedBioassayScreening19 published by Braun et al.,20 which also included an algorithm to choose the best model between eq. S12 and eq. S13.
Response (%) = slope × C (S12) […]
logEC =logEC − 1 ∙log (max−min − 100%) (S14)

**Q.** CC(C)Oc1ccc(S(=O)(=O)c2ccc(O)cc2)cc1 [D8, 4-((4-Isopropoxyphenyl)sulfonyl)phenol] was tested. Which “EC10, ERα (M)” value (Estrogen Receptor ERα [1]) did it give?
**A.** 1.12 × 10^–5 M

**Q.** What about the “EC10, linear transformed” value (Estrogen Receptor ERα [1]; Bioassay ERα, dosing range all, in M) of the same compound?
**A.** 1.21E-05

**Q.** And the “EC10, linear” value (Estrogen Receptor ERα [1]; Bioassay ERα, dosing range all, linear model fit, in M)?
**A.** 1.41E-05

**Q.** And the logEC10 (Estrogen Receptor ERα [1]; Bioassay ERα, dosing range all, log-logistic model fit)?
**A.** -4.95

**Q.** And the “REPBPA,ERα (relative effect potency in relation to BPA)” value (Estrogen Receptor ERα [1])?
**A.** 0.033

**Q.** What about the SR-ScoreERα (Estrogen Receptor ERα [1]) of the same compound?
**A.** 1.00

**Q.** What about the Efficacy % (Estrogen Receptor ERα [1]) of the same compound?
**A.** 18.50%

**Q.** And the EC10 (Estrogen Receptor ERα [1]; in M)?
**A.** 1.12E-05

**Q.** What about the REPBPA (Estrogen Receptor ERα [1]) of the same compound?
**A.** 3.29E-02

**Q.** And the “Specificity ratio (SRbaseline) SRERα” value (Estrogen Receptor ERα [1])?
**A.** 5.88

**Q.** What about the “Specificity ratio (SRcytotoxicity) SRERα” value (Estrogen Receptor ERα [1]; against experimental cytotoxicity) of the same compound?
**A.** 16.41

**Q.** And the “EC10, ERα” value (Estrogen Receptor ERα [1])?
**A.** 11.2 µM

**Q.** And the “log(1/EC10) ERα” value (Estrogen Receptor ERα [1])?
**A.** 0.63

**Q.** And the Emax (Estrogen Receptor ERα [1]; read-out: Emax%ERα)?
**A.** 18%

**Q.** What about the “Relative effect potency REPERα” value (Estrogen Receptor ERα [1]) of the same compound?
**A.** 0.0329

**Q.** What about the “EC10, before oxidation” value (Estrogen Receptor ERα [2]) of the same compound?
**A.** 1.21E-05

**Q.** What does the source list for CC1(C)[C@H](O)C(C)(C)[C@H]1O [t-TMCD, trans-2,2,4,4-Tetramethyl-1,3-cyclobutanediol]?
**A.** EC10, ERα (M) (Estrogen Receptor ERα [1]): 3.03 × 10^–3 M; REPBPA,ERα (relative effect potency in relation to BPA) (Estrogen Receptor ERα [1]): 1.2 × 10^–4; SR-ScoreERα (Estrogen Receptor ERα [1]): 0.00922; Efficacy % (Estrogen Receptor ERα [1]): <20%; EC10 (Estrogen Receptor ERα [1]; in M): 3.03E-03; REPBPA (Estrogen Receptor ERα [1]): 1.22E-04; Specificity ratio (SRbaseline) SRERα (Estrogen Receptor ERα [1]): 0.32; EC10, ERα (Estrogen Receptor ERα [1]): 3030 µM; log(1/EC10) ERα (Estrogen Receptor ERα [1]): 0.32; Relative effect potency REPERα (Estrogen Receptor ERα [1]): 0.000122; EC10, before oxidation (Estrogen Receptor ERα [2]): 3.18E-03
